# Laboratory results as given in patent US20110230476A1, “PI3 KINASE INHIBITORS AND USES THEREOF” (AVILA THERAPEUTICS, INC., priority 2009, published 2011).
# Legend:
# [1] = biological target: T1, PI3Kβ (p110β/p85α) (Homo sapiens, UniProt P42338); test: HTRF assay, potency against active PI3Kβ; assay type: biochemical; details: [ATP]=50 μM, [di-C8-PIP2]=10 μM, 30 min pre-incubation, read-out: PI3Kβ Inhibition
# T1 construct: purchased BPS Bioscience (San Diego, Calif.) or Millipore (Billerica, Mass.)
# T1 sequence (P42338 whole entry): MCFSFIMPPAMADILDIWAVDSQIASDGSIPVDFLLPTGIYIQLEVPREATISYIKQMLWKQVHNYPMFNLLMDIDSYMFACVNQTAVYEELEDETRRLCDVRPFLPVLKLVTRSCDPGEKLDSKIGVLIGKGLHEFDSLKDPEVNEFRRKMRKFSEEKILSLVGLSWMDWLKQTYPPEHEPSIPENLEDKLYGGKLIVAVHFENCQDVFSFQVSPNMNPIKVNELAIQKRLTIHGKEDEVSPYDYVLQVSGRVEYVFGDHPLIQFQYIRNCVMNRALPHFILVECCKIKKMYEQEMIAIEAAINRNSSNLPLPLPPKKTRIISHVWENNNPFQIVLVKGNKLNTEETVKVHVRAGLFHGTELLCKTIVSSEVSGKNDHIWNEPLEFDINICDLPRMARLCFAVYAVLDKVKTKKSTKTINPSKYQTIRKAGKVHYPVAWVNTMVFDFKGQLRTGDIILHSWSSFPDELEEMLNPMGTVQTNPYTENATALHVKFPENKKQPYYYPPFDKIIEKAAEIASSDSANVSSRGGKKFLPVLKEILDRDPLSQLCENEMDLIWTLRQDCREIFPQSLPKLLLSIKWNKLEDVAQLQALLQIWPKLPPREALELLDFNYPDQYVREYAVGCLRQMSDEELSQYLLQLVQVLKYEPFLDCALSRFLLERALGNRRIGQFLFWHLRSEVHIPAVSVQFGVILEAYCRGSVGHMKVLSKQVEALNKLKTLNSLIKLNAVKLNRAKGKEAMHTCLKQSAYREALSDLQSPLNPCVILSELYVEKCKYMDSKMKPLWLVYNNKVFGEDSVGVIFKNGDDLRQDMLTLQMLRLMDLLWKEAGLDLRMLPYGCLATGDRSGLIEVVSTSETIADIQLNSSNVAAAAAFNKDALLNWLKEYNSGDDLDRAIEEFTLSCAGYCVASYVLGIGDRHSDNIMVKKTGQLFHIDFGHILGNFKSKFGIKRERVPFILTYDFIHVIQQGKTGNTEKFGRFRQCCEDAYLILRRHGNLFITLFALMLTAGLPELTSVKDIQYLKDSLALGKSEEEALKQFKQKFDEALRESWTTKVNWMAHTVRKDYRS
# T1 sequence (P27986 whole entry partner): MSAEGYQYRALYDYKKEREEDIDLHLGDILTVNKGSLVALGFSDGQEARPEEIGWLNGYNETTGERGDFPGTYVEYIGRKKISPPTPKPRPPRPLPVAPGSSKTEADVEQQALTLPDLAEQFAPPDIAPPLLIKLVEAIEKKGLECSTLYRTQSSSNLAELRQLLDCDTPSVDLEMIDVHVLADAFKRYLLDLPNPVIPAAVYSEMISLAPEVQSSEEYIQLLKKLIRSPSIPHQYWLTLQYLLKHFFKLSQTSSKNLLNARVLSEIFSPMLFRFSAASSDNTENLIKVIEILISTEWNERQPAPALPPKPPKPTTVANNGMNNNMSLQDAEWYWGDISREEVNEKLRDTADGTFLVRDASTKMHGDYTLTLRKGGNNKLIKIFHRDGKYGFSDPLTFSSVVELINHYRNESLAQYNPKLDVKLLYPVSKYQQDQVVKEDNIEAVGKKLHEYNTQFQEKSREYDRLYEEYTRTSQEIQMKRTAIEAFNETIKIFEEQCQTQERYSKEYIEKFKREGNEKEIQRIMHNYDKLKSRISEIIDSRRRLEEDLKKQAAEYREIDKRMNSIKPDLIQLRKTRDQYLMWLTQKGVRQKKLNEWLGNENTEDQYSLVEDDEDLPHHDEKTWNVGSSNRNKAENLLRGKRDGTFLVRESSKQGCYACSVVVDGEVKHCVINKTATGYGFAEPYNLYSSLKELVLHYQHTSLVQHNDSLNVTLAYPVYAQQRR
# How it was run: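 Active p110/p85α lipid kinase reactions were started with ATP and run 30-60 minutes at 25 °C, then stopped and developed with HTRF detection mix. HTRF ratio converted to % inhibition against ±enzyme controls; IC50 from log[inhibitor] vs response, variable slope.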
# [2] = system: Phospho-Akt(Ser473); test: Dose response in SKOV3 cells as determined by in-cell Western; assay type: cell-based; details: Homo sapiens, SK-OV-3
# How it was run: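 SKOV3 cells treated with compound for 1 hr, then formaldehyde-fixed, permeabilised and stained overnight for phospho-Akt(Ser473) with anti-tubulin as a reference. Infrared secondary antibodies read at 680 and 800 nm channels by in-cell Western imaging.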
# [3] = system: Phospho-Akt(Ser473); test: Dose response in SKOV3 cells as determined by Western blot; assay type: cell-based; details: Homo sapiens, SK-OV-3, 1 hr, Phospho-Akt normalized to total Akt, read-out: Immunoblot
# How it was run: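 SKOV3 cells in DMEM/10% FBS were treated with compound in 0.1% DMSO for 1 hr, then lysed. 50 ug protein was immunoblotted for Phospho-Akt(Ser473) and total Akt with fluorescent read-out. Phospho-Akt was normalized to total Akt and expressed as percent of untreated signal.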
# [4] = system: HCT116 cells; test: HCT-116 cell proliferation assay; assay type: cell-based; details: Homo sapiens, 72 hours, Cell Titer Glo
# Method: HCT-116 Cell Proliferation Assay
# For the HCT116 Proliferation Assay, 3000 cells per well were plated in Growth Media (DMEM, 10% FBS, 1% 1-glutamine, 1% penicillin/streptomycin) in 96 well plates. The following day, compounds were added to duplicate wells at concentrations of 10 uM and 3-fold dilutions down to 40 nM. The plates were returned to the incubator for 72 hours and then the assays were developed using Cell Titer Glo (Promega, Madison, Wis.) according to manufacturer's instructions.
# [5] = system: PI3K; test: PI3K HCT116 cellular assay (Western blot); assay type: cell-based; details: Homo sapiens, HCT-116, HCT116 colon cancer cells, 1 hour incubation, read-out: PI3K Inhibition
# Method: PI3K HCT116 Cellular Assay
# Selected compounds were assayed in HCT116 colon cancer cells. […] Cells were then washed with PBS, lysed and the protein lysates were then recovered and analyzed by Western blot.
# [6] = SKOV3 cells, 1 hr, read-out: pAKT Inhibition in cell Western
SMILES,IC50 [1] [nM],"EC50 [2, 6] [nM]","EC50 ([2]; Table 19, assay not given, classes agree with Table 23, read-out: EC50 pAkt^Ser473) [nM]",EC50 [3] [nM],EC50 [4] [nM],EC50 [5] [nM]
"CC(C)=CC(=O)CCC(=O)N1CCN(Cc2cc3nc(-c4cccc5[nH]ncc45)nc(N4CCOCC4)c3s2)CC1 [II-a-3, 1-(4-((2-(1H-indazol-4-yl)-4-morpholinothieno[3,2-d]pyrimidin-6-yl)methyl)piperazin-1-yl)-6-methylhept-5-ene-1,4-dione]",> 1000,≤ 10,≤ 10,10 to 100,–,–
"C/C=C/C(=O)CCC(=O)N1CCN(Cc2cc3nc(-c4cccc5[nH]ncc45)nc(N4CCOCC4)c3s2)CC1 [II-a-36, (E)-1-(4-((2-(1H-indazol-4-yl)-4-morpholinothieno[3,2-d]pyrimidin-6-yl)methyl)piperazin-1-yl)hept-5-ene-1,4-dione]",> 1000,100 to 1000,–,10 to 100,1000 to 10000,< 20
